Consider two compounds from patent US20130072459A1, “PHARMACEUTICAL COMPOSITION FOR THE PREVENTION OR THE TREATMENT OF NON-ALCOHOLIC FATTY LIVER DISEASE AND THE METHOD FOR PREVENTION OR TREATMENT OF NON-ALCOHOLIC FATTY LIVER DISEASE USING THE SAME” (priority 2010, published 2013).

Test [1] deals with high fat diet-induced simple steatosis. The experiment in a line: Non-alcoholic fatty liver-preventing effects on high fat diet-induced simple steatosis in mice (oral, 28 days). In kind it is in vivo, C57BL/6 mice. The settings on record: for Triglyceride increase inhibition (%) relative to high fat diet-fed group / Triglyceride increment (%) relative to standard diet-fed group: 28 days, high fat diet; for lipid droplets in liver tissue sample (histological evaluation), result in words: HE staining, FIG. 8; for maximum decrement of the hepatic triglyceride content relative to the high fat diet-fed group: maximum over the doses tested. As to the method:
7-week old male C57BL/6 mice were stabilized and then divided into 9 groups (n=9) according to the body weight and blood glucose level. A standard diet-fed group and a high fat diet-fed group were orally administered a vehicle solution (0.5% MC (methylene cellulose)) of each diet once a day at a dose of 10 ml/kg, and the remaining groups were orally given once a day for 28 days a high fat diet in conjunction with tartrate of Compound 1 at doses of 30, 100 and 300 mg/kg, sitagliptin phosphate at doses of 100 and 300 mg/kg, and vildagliptin at doses of 100 mg/kg and 300 mg/kg, respectively, according to the designated groups. 24 hours after the final oral administration, animals were dissected and the excised liver was homogenized in a 5(v/v) % Triton-X solution to which a triglyceride working reagent was then added, followed by measurement of an absorbance at 540 nm to determine the content of triglyceride (Table 2). In addition, a portion of the excised liver was fixed in a 10(v/v) % formalin solution and then a tissue sample was prepared, followed by hematoxylin & eosin(HE) staining and photographing (FIG. 8).

Test [2] concerns activated hepatic stellate cells. Put plainly: Expression of activity indicator proteins (TGFβ1, α-SMA) in activated hepatic stellate cells, Western blot. In kind it is cell-based, rat (Wistar). Particulars: for 1 ng/mL TGFβ1-induced protein expression inhibition rate, TGFβ1 / 1 ng/mL TGFβ1-induced protein expression inhibition rate, α-SMA: 100 μM compound, 7 days, N = 3, corrected by β-actin; for protein expression levels of TGFβ1 and α-SMA, result in words: hTGF-β1-activated rat hepatic stellate cells. Here is the method: An inhibitory action of the compounds of the present invention on the activation of hepatic stellate cells was tested according to the following cell culture method. Male rats (Wistar rats), weighing 500 to 700 g, were anesthetized, followed by an abdominal incision, and cannulae were connected to hepatic portal veins, followed by sequential perfusion with a Hank's Balanced Salt Solution (HBSS) containing heparin and an HBSS containing type 1 collagenase. After the perfusion was complete, the liver was excised, ground with surgical scissors, and added to an HBSS containing type 1 collagenase, followed by shaking culture at 37° C. for 15 minutes. The completely ground liquid-state liver tissue was passed through gauze and centrifuged at 500 g for 10 minutes. The resulting mingled cell precipitate was washed with a phosphate buffer, followed by centrifugation at 100 g for 5 minutes, and the supernatant was collected. The supernatant was further centrifuged at 500 g for 10 minutes to obtain a precipitate to which a 9:1 (v/v) mixture of a Ficoll liquid (GE Healthcare) and a Percoll liquid (GE Healthcare) was added, followed by mixing. A phosphate buffer was gently placed on the mixed layer, followed by centrifugation at 1,400 g for 15 minutes. Then, the cell layer formed between the upper layer and the lower layer was recovered and washed once with a Dulbecco's Modified Eagle Medium (DMEM) containing 10(v/v) % fetal bovine serum. The resulting cells were added at a cell density of 3.1×10^5 cells/cm^2, the medium was exchanged with a fresh medium after 24 hours, and cultured for 7 days with exchange of the medium at intervals of 2 to 3 days. Then, the drugs were treated at specified concentrations in a medium containing 1 ng/ml of a human transforming growth factor (TGF) β1 and a medium containing no TGF β1. TGF β1 was dissolved in dimethylsulfoxide (DMSO) to a concentration 1.000-fold higher than the desired treatment concentration of the drug, 1.000-fold diluted in a medium to be a 1-fold (1×) volume, and then treated on cells. After 7 days of the drug treatment, the medium was harvested and washed with a phosphate buffer. A buffer containing a surfactant was added thereto and the cells were lysed. Then, proteins were quantified, electrophoresed on a 4-12% Bis-Tris gel (Invitrogen), and transferred to a nitrocellulose membrane. The transferred proteins were reacted with primary antibodies specific for α-smooth muscle actin (α-SMA) or TGFβ1, and then reacted with horse radish peroxidase-conjugated specific secondary antibodies. The expression level of the target protein was confirmed using a chemiluminescent liquid and corrected in terms of actin (β-actin) expression level (FIG. 9). The decrement of observed protein expression by 100 μM of individual compounds of the present invention was expressed as a percentage drug-induced decrement, based an increment of protein expression in the TGFβ1-treated positive control group relative to the negative control group to which only DMSO was added (Table 3).
(In general: In western blotting, separated proteins are transferred to a membrane and probed.)

A further test deals with ob/ob mice. The experiment in a line: Plasma alanine aminotransferase in obesity animal model ob/ob mice. Particulars: 4 weeks; for plasma alanine aminotransferase, result in words: ob/ob mice. In kind it is in vivo. As to the method:
5-week old male C57BL/6 mice (normal mouse group) and ob/ob mice (obesity mouse group) were stabilized and then divided into 6 groups according to the body weight and blood glucose level, followed by feeding with a standard diet and a drug-mixed diet. […] Therefore, in order to supply 10, 100 and 300 mg/kg which are daily target doses of tartrate of Compound 1, diets were formulated by mixing a standard diet with 0.01% by weight, 0.1% by weight and 0.3% by weight of tartrate of Compound 1 and 0.3% by weight of sitagliptin phosphate, respectively. 4 weeks after a supply of diets, animals were dissected and sera were separated. Plasma alanine aminotransferase levels were measured using a blood analyzer (Table 6).

Setting [3] is: standard diet with 0.3% drug (target 300 mg/kg/day).
[4] abbreviates: standard diet with 0.01% drug (target 10 mg/kg/day).
Where [5] appears, read: standard diet with 0.1% drug (target 100 mg/kg/day).

Take `N[C@@H](CC(=O)N1CCn2c(nnc2C(F)(F)F)C1)Cc1cc(F)c(F)cc1F` [sitagliptin phosphate, sitagliptin]: in test [1] (100 mg/kg oral once a day), the “Triglyceride increase inhibition (%) relative to high fat diet-fed group” value was determined as 61% and the “Triglyceride increment (%) relative to standard diet-fed group” value turned out to be 21%. Moreover, in test [1] (300 mg/kg oral once a day), the “Triglyceride increase inhibition (%) relative to high fat diet-fed group” value was 15% and the “Triglyceride increment (%) relative to standard diet-fed group” value is 45%. Moreover, in test [1], the “lipid droplets in liver tissue sample (histological evaluation), result in words” value is “reduction of lipid droplets” and the “maximum decrement of the hepatic triglyceride content relative to the high fat diet-fed group” value is 61%. For the same compound, in test [2], the “1 ng/mL TGFβ1-induced protein expression inhibition rate, TGFβ1” value is −6 ± 51.9%; the “1 ng/mL TGFβ1-induced protein expression inhibition rate, α-SMA” value was 46 ± 7.3%; the “protein expression levels of TGFβ1 and α-SMA, result in words” value is listed as “lowered”. Besides, the “plasma alanine aminotransferase, result in words” value in the test with ob/ob mice is given as “reduction”. In addition, in the test on ob/ob mice (setting [3]), the “ALT increase inhibition (%) relative to ob/ob mouse control group” value is recorded as 15% and the “ALT increment (%) relative to normal mouse group” value amounted to 869%.
On to `CC(C)(C)OC[C@@H]1C(=O)NCCN1C(=O)C[C@H](N)Cc1cc(F)c(F)cc1F` [tartrate of Compound 1, (R)-4-[(R)-3-amino-4-(2,4,5-trifluorophenyl)-butanoyl]-3-(t-butoxymethyl)piperazin-2-one], for which, in test [1] (30 mg/kg oral once a day), the “Triglyceride increase inhibition (%) relative to high fat diet-fed group” value is on record as 34% and the “Triglyceride increment (%) relative to standard diet-fed group” value came out at 35%. In test [1] (100 mg/kg oral once a day), the “Triglyceride increase inhibition (%) relative to high fat diet-fed group” value worked out at 12% and the “Triglyceride increment (%) relative to standard diet-fed group” value stood at 47%. In test [1] (300 mg/kg oral once a day), the “Triglyceride increase inhibition (%) relative to high fat diet-fed group” value was 81% and the “Triglyceride increment (%) relative to standard diet-fed group” value came out at 11%. Besides, in test [1], the “lipid droplets in liver tissue sample (histological evaluation), result in words” value is listed as “reduction of lipid droplets” and the “maximum decrement of the hepatic triglyceride content relative to the high fat diet-fed group” value came out at 81%. Moreover, in test [2], the “1 ng/mL TGFβ1-induced protein expression inhibition rate, TGFβ1” value was 78 ± 17.2%; the “1 ng/mL TGFβ1-induced protein expression inhibition rate, α-SMA” value stood at 25 ± 1.9%; the “protein expression levels of TGFβ1 and α-SMA, result in words” value is “lowered”. The “concentration dependence of protein expression decrement of TGFβ1 and α-SMA, result in words” value in test [2] (FIG. 9) was “increased with a higher concentration”. In addition, the “plasma alanine aminotransferase, result in words” value in the test with ob/ob mice is “reduction”. Besides, in the test with ob/ob mice (setting [4]), the “ALT increase inhibition (%) relative to ob/ob mouse control group” value was 43% and the “ALT increment (%) relative to normal mouse group” value worked out at 610%. For the same compound, in the test with ob/ob mice (setting [5]), the “ALT increase inhibition (%) relative to ob/ob mouse control group” value was 39% and the “ALT increment (%) relative to normal mouse group” value was 653%. In the test with ob/ob mice (setting [3]), the “ALT increase inhibition (%) relative to ob/ob mouse control group” value came out at 27% and the “ALT increment (%) relative to normal mouse group” value turned out to be 757%.
